Reference: BindingDB's records for doi:10.1074/jbc.M114.564278 (University of Michigan, 2014)
Where a SMILES comes first, the peptide text is derived from it. [ ]: non-standard residue; d: D form. The star is where a group is joined. X1 = O=C(O)c1cc(NC(=S)*)ccc1-c1c2ccc(=O)cc-2oc2cc(O)ccc12; Ala(3-Me-diazirin-3-yl) = CC1(C[C@H](N)C(=O)O)N=N1; βAla = NCCC(=O)O

How the values were obtained:
[1] = molecular target: T1, Acyl-[acyl-carrier-protein]--UDP-N-acetylglucosamine O-acyltransferase (Escherichia coli (strain K12), UniProt P0A722); test: Fluorescence Polarization Assay; settings: pH 8
T1 sequence (P0A722 whole entry): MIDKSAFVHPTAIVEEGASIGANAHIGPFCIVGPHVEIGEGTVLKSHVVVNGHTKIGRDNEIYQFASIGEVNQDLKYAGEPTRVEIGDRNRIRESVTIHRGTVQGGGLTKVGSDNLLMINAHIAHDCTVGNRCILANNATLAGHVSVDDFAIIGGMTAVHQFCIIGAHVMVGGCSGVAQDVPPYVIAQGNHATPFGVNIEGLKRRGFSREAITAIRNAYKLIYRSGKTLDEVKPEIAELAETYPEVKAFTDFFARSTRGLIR
Description: (§1) The fluorescence polarization assay was performed as previously described [Jenkins et al., ACS Chem. Biol., 7:1170-1177]. In 384-well black Costar plates, LpxA or His6-LpxD were serially diluted while holding the fluorescent peptide at 20 nM in a final volume of 50 μl in 20mM HEPES pH 8.0 (0.01% DMSO). The wells were gently mixed and incubated at 30 °C in the dark for 15 min. Polarization was measured on a SpectraMax M5 plate reader in triplicate with readings taken at λex = 485 nm and λem = 525 nm.

[2] = molecular target: T2, UDP-3-O-(3-hydroxymyristoyl)glucosamine N-acyltransferase (Escherichia coli (strain K12), UniProt P21645); test: Fluorescence Polarization Assay; settings: pH 8
T2 sequence (P21645 whole entry): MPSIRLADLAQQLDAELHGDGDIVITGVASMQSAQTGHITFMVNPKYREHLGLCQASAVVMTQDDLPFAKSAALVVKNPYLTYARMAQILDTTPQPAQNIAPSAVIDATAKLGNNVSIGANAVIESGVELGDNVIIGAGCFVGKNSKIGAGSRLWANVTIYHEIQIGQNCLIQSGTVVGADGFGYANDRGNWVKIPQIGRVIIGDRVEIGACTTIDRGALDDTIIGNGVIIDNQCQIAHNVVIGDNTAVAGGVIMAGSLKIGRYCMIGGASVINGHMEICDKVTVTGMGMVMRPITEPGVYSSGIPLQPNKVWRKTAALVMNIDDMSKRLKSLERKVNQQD
Description: as §1

| Kd [1] | Kd [2] | Molecule |
| --- | --- | --- |
| 50 µM | 2.1 µM | CC[C@H](C)[C@H](NC(=O)[C@H](CC(=O)O)NC(=O)[C@H](Cc1c[nH]c2ccccc12)NC(=O)[C@H](CCCCN)NC(=O)[C@@H]1CCCN1C(=O)[C@H](CC(C)C)NC(=O)[C@H](CCSC)NC(=O)[C@H](Cc1ccc(O)cc1)NC(=O)[C@H](CC1(C)N=N1)NC(=O)[C@H](CC(N)=O)NC(=O)[C@@H](NC(=O)CCNC(=S)Nc1ccc(-c2c3ccc(=O)cc-3oc3cc(O)ccc23)c(C(=O)O)c1)[C@@H](C)O)C(=O)N1CCC[C@H]1C(N)=O [FITC-(βa)TN(L-photoleucine)YMLPKWDIP-CONH2] ({X1-βAla}-TN[Ala(3-Me-diazirin-3-yl)]YMLPKWDIP-NH2) |
| 32 µM | 1.1 µM | CC[C@H](C)[C@H](NC(=O)[C@H](CC(=O)O)NC(=O)[C@H](Cc1c[nH]c2ccccc12)NC(=O)[C@H](CCCCN)NC(=O)[C@@H]1CCCN1C(=O)[C@H](CC1(C)N=N1)NC(=O)[C@H](CCSC)NC(=O)[C@H](Cc1ccc(O)cc1)NC(=O)[C@H](CC(C)C)NC(=O)[C@H](CC(N)=O)NC(=O)[C@@H](NC(=O)CCNC(=S)Nc1ccc(-c2c3ccc(=O)cc-3oc3cc(O)ccc23)c(C(=O)O)c1)[C@@H](C)O)C(=O)N1CCC[C@H]1C(N)=O [FITC-(βa)TNLYM(L-photoleucine)PKWDIP-CONH2] ({X1-βAla}-TNLYM[Ala(3-Me-diazirin-3-yl)]PKWDIP-NH2) |
| 12 µM | 22 µM | CSCC[C@H](NC(=O)[C@H](Cc1ccc(O)cc1)NC(=O)[C@H](CC(C)C)NC(=O)[C@H](CC(N)=O)NC(=O)[C@@H](NC(=O)CCNC(=S)Nc1ccc(-c2c3ccc(=O)cc-3oc3cc(O)ccc23)c(C(=O)O)c1)[C@@H](C)O)C(=O)N[C@@H](CC(C)C)C(N)=O [FITC-(βa)TNLYML-CONH2] ({X1-βAla}-TNLYML-NH2) |
| 4.4 µM | 36 µM | CSCC[C@H](NC(=O)[C@H](Cc1ccc(O)cc1)NC(=O)[C@H](CC(C)C)NC(=O)[C@H](CC(N)=O)NC(=O)[C@@H](NC(=O)CCNC(=S)Nc1ccc(-c2c3ccc(=O)cc-3oc3cc(O)ccc23)c(C(=O)O)c1)[C@@H](C)O)C(=O)N[C@@H](CC(C)C)C(=O)O [FITC-(βa)TNLYML-COOH] ({X1-βAla}-TNLYML-OH) |
| 17 µM | 0.6 µM | CC[C@H](C)[C@H](NC(=O)[C@H](CC(=O)O)NC(=O)[C@H](Cc1c[nH]c2ccccc12)NC(=O)[C@H](CCCCN)NC(=O)[C@@H]1CCCN1C(=O)[C@H](CC(C)C)NC(=O)[C@H](CCSC)NC(=O)[C@H](Cc1ccc(O)cc1)NC(=O)[C@H](CC(C)C)NC(=O)[C@H](CC(N)=O)NC(=O)[C@@H](NC(=O)CCNC(=S)Nc1ccc(-c2c3ccc(=O)cc-3oc3cc(O)ccc23)c(C(=O)O)c1)[C@@H](C)O)C(=O)N1CCC[C@H]1C(N)=O [FITC-(βa)TNLYMLPKWDIP-CONH2] ({X1-βAla}-TNLYMLPKWDIP-NH2) |
| 23 µM | – | H-TNLYML-NH2 [RJPXD33Δ6] |
| 2.1 µM | – | H-TNLYML-OH [RJPXD33Δ6-COOH] |

| Molecule | Kd [1] | Kd [2] |
| --- | --- | --- |
| CSCC[C@H](NC(=O)[C@H](Cc1ccc(O)cc1)NC(=O)[C@H](CC(C)C)NC(=O)[C@H](CC(N)=O)NC(=O)[C@@H](NC(=O)CCNC(=S)Nc1ccc(-c2c3ccc(=O)cc-3oc3cc(O)ccc23)c(C(=O)O)c1)[C@@H](C)O)C(=O)N[C@@H](CC(C)C)C(=O)N1CCC[C@H]1C(=O)N[C@@H](CCCCN)C(=O)N[C@@H](Cc1c[nH]c2ccccc12)C(=O)N[C@@H](CC(=O)O)C(=O)N[C@@H](CC1(C)N=N1)C(=O)N1CCC[C@H]1C(N)=O [FITC-(βa)TNLYMLPKWD(L-photoleucine)P-CONH2] ({X1-βAla}-TNLYMLPKWD[Ala(3-Me-diazirin-3-yl)]P-NH2) | 22 µM | 0.8 µM |
